The nature of the series: collision cross section in nitrogen (drift tube, single-field); higher = larger gas-phase ion size.
The mark [1] stands for this setting: ion type: [M+H], ion source: APCI, ion mode: Positive.
Setting [2] is: ion type: [M+Na], ion source: ESI, ion mode: Positive.
The mark [3] stands for this setting: ion type: [M-H], ion source: ESI, ion mode: Negative.
Where [4] appears, read: ion type: [M+H], ion source: ESI, ion mode: Positive.
Where [5] appears, read: ion source: APCI, ion mode: Positive, ion type: [M]+ (permanent cation).
Setting [6] is: ion source: ESI, ion mode: Positive, ion type: [M]+ (permanent cation).
[7] abbreviates: ion type: [M+], ion source: APCI, ion mode: Positive.

The text below walks through data of the supplement of paper PMC12317010.

Structures can show the parent of a compound that is named as a salt.
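Further: chemical standards at 10 µM analysed by drift tube IMS-QTOF MS in about 3.95 torr nitrogen, mean of duplicate injections differing ≤1%, mass error below 10 ppm.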

On to `C=C(C)C(=O)OCCOCCOCCOCCOC(=O)C(=C)C` [Tetraethyleneglycol dimethacrylate], for which the “collision cross section in nitrogen” value by setting is: under setting [1], 171.2 Å²; under setting [2], 176.9 Å².

With `NCCNCCNCCNCCN` [Tetraethylenepentamine], the “collision cross section in nitrogen” value under setting [2] is listed as 148.5 Å².

As for `CCN(CC)C(=S)SSC(=S)N(CC)CC` [Tetraethylthiuram disulfide], the “collision cross section in nitrogen” value under setting [2] is given as 173.2 Å².

As to `COc1cc(CCC(=O)CC(=O)CCc2ccc(O)c(OC)c2)ccc1O` [Tetrahydrocurcumin], the “collision cross section in nitrogen” value was found to be 181.2 Å² under setting [2] and 184.8 Å² under setting [3].

For `CC(C)OP(=O)(CP(=O)(OC(C)C)OC(C)C)OC(C)C` [Tetraisopropyl methylenediphosphonate], the “collision cross section in nitrogen” value came out at 174.6 Å² under setting [1], 185 Å² under setting [2] and 177.7 Å² under setting [3].

For the compound `CC(C)C(=O)OCC(C)(C)C(O)C(C)C` (stereo not given) [Texanol], the “collision cross section in nitrogen” value under setting [2] was 161.4 Å².

Take `Cn1c(=O)c2[nH]cnc2n(C)c1=O` [Theophylline]: the “collision cross section in nitrogen” value runs as follows: under setting [1], 136.3 Å²; under setting [4], 137.3 Å²; under setting [2], 146.7 Å².

With `c1ccc2[nH]c(-c3cscn3)nc2c1` [Thiabendazole], the “collision cross section in nitrogen” value reads like this: under setting [1], 141.6 Å²; under setting [4], 139.7 Å²; under setting [2], 152.4 Å²; under setting [3], 142 Å².

For `N#C/N=C1\SCCN1Cc1ccc(Cl)nc1` [Thiacloprid], the “collision cross section in nitrogen” value is, setting by setting: under setting [4], 159.6 Å²; under setting [2], 174.2 Å²; under setting [3], 154.5 Å².

As for `CN1COCN(Cc2cnc(Cl)s2)C1=N[N+](=O)[O-]` [Thiamethoxam], the “collision cross section in nitrogen” value is given as 159.9 Å² under setting [1], 162.1 Å² under setting [2] and 158.3 Å² under setting [3].

For `Cc1ncc(C[n+]2csc(CCO)c2C)c(N)n1` [Thiamine nitrate], under setting [5], the “collision cross section in nitrogen” value amounted to 161.5 Å².

For `Cc1ncsc1CCO` [Thiamine thiozole], the “collision cross section in nitrogen” value is, setting by setting: under setting [1], 126.1 Å²; under setting [4], 126.5 Å².

Regarding `Cc1ncc(C[n+]2csc(CCO)c2C)c(N)n1` [Thiamine], the “collision cross section in nitrogen” value under setting [6] was 162.7 Å².

For the compound `COC(=O)c1c(C(F)F)nc(C(F)(F)F)c(C2=NCCS2)c1CC(C)C` [Thiazopyr], the “collision cross section in nitrogen” value was 183.2 Å² under setting [1], 182.1 Å² under setting [4], 192.1 Å² under setting [2] and 182.6 Å² under setting [3].

Take `O=C(Nc1ccccc1)Nc1cnns1` [Thidiazuron]: the “collision cross section in nitrogen” value is given as 148.4 Å² under setting [1] and 147.9 Å² under setting [4].

For `C[CH2][Hg][S]c1ccccc1C(=O)O` [Thimerosal], under setting [3], the “collision cross section in nitrogen” value turned out to be 146.9 Å².

As for `CSC(C)=NOC(=O)N(C)SN(C)C(=O)ON=C(C)SC` [Thiodicarb], under setting [2], the “collision cross section in nitrogen” value is reported as 190.7 Å².

`CCOC(=O)NC(=S)Nc1ccccc1NC(=S)NC(=O)OCC` [Thiophanate]: the “collision cross section in nitrogen” value came out at 187 Å² under setting [1], 186.6 Å² under setting [4], 189.6 Å² under setting [2] and 187.5 Å² under setting [7].

As to `S=P(N1CC1)(N1CC1)N1CC1` [Thiotepa], the “collision cross section in nitrogen” value is, setting by setting: under setting [1], 132.5 Å²; under setting [4], 132.5 Å².

`O=c1cc[nH]c(=S)[nH]1` [Thiouracil]: under setting [3], the “collision cross section in nitrogen” value is recorded as 116.1 Å².

With `Cc1c[nH]c(=O)[nH]c1=O` [Thymine], the “collision cross section in nitrogen” value under setting [3] worked out at 121 Å².

Turning to `Clc1ccccc1CN1CCc2sccc2C1` [Ticlopidine hydrochloride], the “collision cross section in nitrogen” value was found to be 156.4 Å² under setting [1] and 156.8 Å² under setting [4].

With `CC(C)(C)NC[C@H](O)COc1nsnc1N1CCOCC1` [Timolol maleate salt], the “collision cross section in nitrogen” value reads like this: under setting [1], 176.1 Å²; under setting [4], 176.5 Å²; under setting [2], 172.7 Å².

Turning to `O=S(=O)(O)c1cc(O)c(O)c(S(=O)(=O)O)c1` [Tiron], the “collision cross section in nitrogen” value under setting [3] turned out to be 145.8 Å².

Consider `CCOC(=O)NNc1nncc2ccccc12` [Todralazine hydrochloride], for which the “collision cross section in nitrogen” value was 152 Å² under setting [1], 151.8 Å² under setting [4] and 158.8 Å² under setting [2].

Regarding `Cc1ccc(S(=O)(=O)NC(=O)NN2CCCCCC2)cc1` [Tolazamide], the “collision cross section in nitrogen” value reads like this: under setting [1], 175.5 Å²; under setting [4], 175.4 Å²; under setting [2], 183.1 Å²; under setting [3], 178.1 Å².

With `CCCCNC(=O)NS(=O)(=O)c1ccc(C)cc1` [Tolbutamide], the “collision cross section in nitrogen” value was 176.6 Å² under setting [2] and 165 Å² under setting [3].

For `Cc1ccc(C(=O)c2cc(O)c(O)c([N+](=O)[O-])c2)cc1` [Tolcapone], under setting [3], the “collision cross section in nitrogen” value stood at 162.8 Å².

With `COP(=S)(OC)Oc1c(Cl)cc(C)cc1Cl` [Tolclofos-methyl], the “collision cross section in nitrogen” value runs as follows: under setting [4], 153.6 Å²; under setting [2], 169.1 Å².

Take `Cc1cccc(N(C)C(=S)Oc2ccc3ccccc3c2)c1` [Tolnaftate]: the “collision cross section in nitrogen” value under setting [1] is given as 175.5 Å², the “collision cross section in nitrogen” value under setting [4] was 175.4 Å² and the “collision cross section in nitrogen” value under setting [2] is given as 185.4 Å².

`Cc1ccc(N2C(=O)C=CC2=O)cc1N1C(=O)C=CC1=O` [Toluene-2,4-dimaleimide]: under setting [1], the “collision cross section in nitrogen” value is 163.3 Å².

Turning to `Cc1ccc(N(SC(F)(Cl)Cl)S(=O)(=O)N(C)C)cc1` [Tolylfluanid], the “collision cross section in nitrogen” value under setting [2] was 177.6 Å².

As to `CCCc1c(OCCCCc2nnn[nH]2)ccc(C(C)=O)c1O` [Tomelukast], under setting [2], the “collision cross section in nitrogen” value came out at 177.6 Å².

For `CC1(C)O[C@@H]2[C@@H](CO[C@@]3(COS(N)(=O)=O)OC(C)(C)O[C@@H]23)O1` [Topiramate], the “collision cross section in nitrogen” value by setting is: under setting [2], 171.7 Å²; under setting [3], 174.7 Å².

On to `Cc1c(C(=O)c2cnn(C)c2O)ccc(S(C)(=O)=O)c1C1=NOCC1` [Topramezone], for which the “collision cross section in nitrogen” value under setting [2] worked out at 181.1 Å² and the “collision cross section in nitrogen” value under setting [3] came out at 182.9 Å².

In the case of `CCON=C(CC)C1=C(O)CC(c2c(C)cc(C)cc2C)CC1=O` (stereo not given) [Tralkoxydim], the “collision cross section in nitrogen” value by setting is: under setting [1], 187.3 Å²; under setting [4], 187 Å²; under setting [2], 196.2 Å²; under setting [3], 188.9 Å².

Regarding `N#Cc1c(-c2ccc(Cl)cc2)[nH]c(C(F)(F)F)c1Br` [Tralopyril], under setting [3], the “collision cross section in nitrogen” value was 157.9 Å².

Turning to `COc1cccc([C@@]2(O)CCCC[C@@H]2CN(C)C)c1` [Tramadol], the “collision cross section in nitrogen” value by setting is: under setting [1], 160.6 Å²; under setting [4], 161.1 Å²; under setting [2], 171.7 Å².

As to `O=c1n(CCCN2CCN(c3cccc(Cl)c3)CC2)nc2ccccn12` [Trazodone hydrochloride], the “collision cross section in nitrogen” value under setting [1] is 192.5 Å², the “collision cross section in nitrogen” value under setting [4] is 192 Å² and the “collision cross section in nitrogen” value under setting [2] is recorded as 195.7 Å².

As to `NC(=O)Cn1c(=O)cc(CCN2CCN(c3nccc4sccc34)CC2)c2ccc(F)cc21` [Trelanserin], the “collision cross section in nitrogen” value is on record as 200.1 Å² under setting [1], 202.8 Å² under setting [4], 207.9 Å² under setting [2] and 203.8 Å² under setting [3].

With `CCCCCCCCOC(=O)c1ccc(C(=O)OCCCCCCCC)c(C(=O)OCCCCCCCC)c1` [Tri-n-octyl trimellitate], the “collision cross section in nitrogen” value under setting [4] is recorded as 259 Å² and the “collision cross section in nitrogen” value under setting [2] is reported as 263.7 Å².

For `Cc1ccccc1OP(=O)(Oc1ccccc1C)Oc1ccccc1C` [Tri-o-cresyl phosphate], the “collision cross section in nitrogen” value runs as follows: under setting [1], 182.7 Å²; under setting [4], 182.3 Å²; under setting [2], 192.7 Å².

On to `CC(C)(C)C(=O)C(Oc1ccc(Cl)cc1)n1cncn1` (stereo not given) [Triadimefon], for which the “collision cross section in nitrogen” value by setting is: under setting [1], 174.6 Å²; under setting [4], 173.6 Å²; under setting [3], 167.7 Å².

As for `C=CCOC(=O)c1ccc(C(=O)OCC=C)c(C(=O)OCC=C)c1` [Triallyl trimellitate], the “collision cross section in nitrogen” value under setting [2] worked out at 189.3 Å².

As to `Nc1nc(N)c2nc(-c3ccccc3)c(N)nc2n1` [Triamterene], the “collision cross section in nitrogen” value by setting is: under setting [1], 158.4 Å²; under setting [4], 158.3 Å²; under setting [2], 173 Å²; under setting [7], 155 Å²; under setting [3], 157.7 Å².

Consider `c1ccc(CN(Cc2ccccc2)Cc2ccccc2)cc1` [Tribenzylamine], for which the “collision cross section in nitrogen” value under setting [1] is 169.1 Å² and the “collision cross section in nitrogen” value under setting [4] amounted to 169.2 Å².

For the compound `O=C(Nc1ccc(Br)cc1)c1cc(Br)cc(Br)c1O` [Tribromsalan], the “collision cross section in nitrogen” value under setting [3] was found to be 173.7 Å².

For `CCCCSP(=O)(SCCCC)SCCCC` [Tribufos], the “collision cross section in nitrogen” value by setting is: under setting [1], 177.5 Å²; under setting [4], 177.2 Å²; under setting [2], 194.4 Å².

As for `CCCCOC(=O)CC(O)(CC(=O)OCCCC)C(=O)OCCCC` [Tributyl citrate], the “collision cross section in nitrogen” value under setting [2] was determined as 202.7 Å².

With `CCCCCCCCCCCCCC[P+](CCCC)(CCCC)CCCC` [Tributyltetradecylphosphonium chloride], the “collision cross section in nitrogen” value was 224 Å² under setting [5] and 224.5 Å² under setting [6].

With `CCCCCCCC(=O)OCC(COC(=O)CCCCCCC)OC(=O)CCCCCCC` [Tricaprylin], under setting [2], the “collision cross section in nitrogen” value was 231.4 Å².

Regarding `COP(=O)(OC)C(O)C(Cl)(Cl)Cl` (stereo not given) [Trichlorfon], under setting [2], the “collision cross section in nitrogen” value is 151.7 Å².

On to `O=C(Nc1ccc(Cl)cc1)Nc1ccc(Cl)c(Cl)c1` [Triclocarban], for which the “collision cross section in nitrogen” value under setting [3] is 169 Å².

For the compound `CCCCOCCOC(=O)COc1nc(Cl)c(Cl)cc1Cl` [Triclopyr 2-butoxyethyl ester], the “collision cross section in nitrogen” value under setting [2] was 176.3 Å².

As for `C=CC(=O)OCC1CC2CC1C1CCC(COC(=O)C=C)C21` (stereo not given) [Tricyclodecanedimethanol diacrylate], the “collision cross section in nitrogen” value under setting [2] is reported as 176.9 Å².

Consider `CCOC(=O)CC(O)(CC(=O)OCC)C(=O)OCC` [Triethyl citrate], for which, under setting [2], the “collision cross section in nitrogen” value is 169.1 Å².
